Assay results from patent publication US20150258052A1, “METHODS OF USING FEXARAMINE AND AGENTS THAT INCREASE SYMPATHETIC NERVOUS SYSTEM ACTIVITY TO PROMOTE BROWNING OF WHITE ADIPOSE TISSUE” (Salk Institute for Biological Studies, priority 2014, published 2015).

How the values were obtained:
DIO mice = experiment: Chronic oral fexaramine in diet-induced obesity (DIO) mice: weight, adiposity, serum parameters, GTT, ITT; assay type: in vivo; settings: for glucose tolerance (glucose tolerance test) / insulin sensitivity (insulin tolerance test): PO 5 weeks
Method: FIGS. 2A-2G are graphs illustrating the reduction of diet-induced obesity and improvement in metabolic homeostasis with fexaramine. Mice were fed a high fat diet (HFD) for 14 weeks and then administered daily oral injections of vehicle (open boxes) or fexaramine (100 mg/kg) (solid boxes) for 5 weeks with HFD. Data represent the mean±STD. Statistical analysis was performed with the Student's t test (*p<0.05, **p<0.01).
FIG. 2A is a line chart illustrating changes in body weight of mice fed a high fat diet (HFD) for 14 weeks and then administered daily oral injections of vehicle (open boxes) or fexaramine (100 mg/kg) (solid boxes) for 5 weeks with HFD. n=8 per group.
(§1) FIG. 4A is a line graph showing the effects of fexaramine at various dosage levels on the body weight of mice fed a HFD for 14 weeks and then administered daily oral injections of vehicle or fexaramine (10, 50 or 100 mg/kg) for 5 weeks with a HFD. Data represent the mean±STD. Statistical analysis was performed with the Student's t test (*p<0.05, **p<0.01).
FIG. 4B is a set of digital images showing histological analysis of the ileum and colon following treatment with fexaramine or vehicle. Mice were fed on HFD for 14 weeks, and then administered daily oral injections of vehicle or fexaramine (100 mg/kg) for 5 weeks with HFD.
as §1, with “4C” for “4A”, “glucose tolerance tests in” for “the effects of fexaramine at various dosage levels on the body weight of”, “with” for “with a”
The physiological effects of fexaramine in established obesity (diet-induced obesity, DIO) models were evaluated. C57BL/6J mice were fed a diet of 60% fat for 14 weeks and then treated PO with vehicle or fexaramine (100 mg/kg) for 5 weeks. […] Analyses of serum metabolic parameters including leptin, insulin, cholesterol, and resistin reflected that fexaramine-mediated weight gain resistance is accompanied by improved endocrine and metabolic profiles (FIGS. 2D and 4D).
Obesity and its metabolic complications are associated with chronic low-grade inflammation, reflected by elevated serum levels of inflammatory cytokines. […] Therefore, glucose tolerance tests (GTTs) and insulin tolerance tests (ITTs) were performed to determine if glucose homeostasis was improved in fexaramine-treated DIO mice.

[1] = tested on: FGF15 signaling and bile acid composition; experiment: FGF15 signaling, hepatic bile acid genes, serum bile acid composition and intestinal barrier in Fex-treated HFD mice; assay type: in vivo
Method: FIGS. 7A-7H show a comparative expression chart and bar charts illustrating that fexaramine increased endogenous FGF15 signaling and changes in BA composition. Mice were fed HFD for 14 weeks and then administered daily oral injections of vehicle or fexaramine (100 mg/kg) for 5 weeks with HFD. In the bar graphs, open bars represent vehicle treatment and solid bars represent fexaramine treatment, and data represent the mean±STD. Statistical analysis was performed with the Student's t test (*p<0.05, **p<0.01).
FIG. 8 is a bar graph showing hepatic Cyp7a1 levels determined by ELISA. Data represent the mean±SD. Statistical analysis was performed with the Student's t test. *p<0.05, **p<0.01.
Mice fed a HFD for 14 weeks were maintained on a HFD and treated with vehicle or fexaramine (100 mg/kg/day per os for 5 week). Serum bile acid composition was determined by mass spectrometry. N.D. not determined.
FXR activation has been reported to enhance mucosal defense gene expression and intestinal barrier function (Inagaki et al., Proc Natl Acad Sci USA 103:3920-3925, 2006; Gadaleta., et al. Gut 60:463-472, 2011).

human TGR5 = biological target: T1, human TGR5 (Homo sapiens, UniProt Q8TDU6); experiment: TGR5 cAMP-response element luciferase reporter in HEK293 cells; assay type: cell-based; settings: HEK293 cells transfected with human TGR5, treated 5 hours
T1 construct: expressed in transfected cells; host or cells: HEK293
T1 sequence (Q8TDU6 1-330): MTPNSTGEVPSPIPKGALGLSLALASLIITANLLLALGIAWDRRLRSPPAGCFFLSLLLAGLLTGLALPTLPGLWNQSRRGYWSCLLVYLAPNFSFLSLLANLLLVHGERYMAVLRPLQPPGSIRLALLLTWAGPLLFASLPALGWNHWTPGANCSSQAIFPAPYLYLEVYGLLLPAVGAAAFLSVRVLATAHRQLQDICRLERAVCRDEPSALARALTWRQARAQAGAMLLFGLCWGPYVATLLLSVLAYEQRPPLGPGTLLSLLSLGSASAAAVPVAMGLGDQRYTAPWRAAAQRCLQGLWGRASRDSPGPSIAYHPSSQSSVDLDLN
Method: HEK293 cells were transfected with expression vectors for cAMP-response element luciferase, β-galactosidase and human TGR5. 24 hours after transfection, cells were treated with fexaramine or INT-777 (a TGR5 agonist)
at the indicated concentrations for 5 hours, prior to measurement of luciferase activity. Data represent the mean±SD. Statistical analysis was performed with the Student's t test. *p<0.05, **p<0.01.

normal chow-fed mice = experiment: Chronic oral fexaramine in normal chow-fed mice; assay type: in vivo
Method: FIGS. 3A-3D are line graphs and a bar graph showing the effects of fexaramine administration in normal chow-fed mice. The mice were treated with vehicle or fexaramine (100 mg/kg) via PO for 5 weeks. Data represent the mean±STD. Statistical analysis as performed with the Student's t test (*p<0.05, **p<0.01).
To investigate the physiological effects of intestinal FXR activation by fexaramine, mice were subjected to chronic fexaramine (100 mg/kg Fex) PO treatment for 5 weeks.

## COC(=O)/C=C/c1cccc(N(Cc2ccc(-c3ccc(N(C)C)cc3)cc2)C(=O)C2CCCCC2)c1 [Fex, fexaramine]
DIO mice; DIO mice, 100 mg/kg PO 5 weeks
  intestinal toxicity (histology of ileum and colon): no signs of intestinal toxicity
  overall fat mass (MRI): reduced overall fat mass
  serum levels of inflammatory cytokines TNFα, IL-1α, IL-1β, IL-17 and MCP-1: markedly decreased
  wet weights of subcutaneous (inguinal) and visceral (gonadal and mesenteric) adipose depots: significant reductions
DIO mice; DIO mice, 100 mg/kg PO 5 weeks, serum after 8 hours fasting
  glucose, insulin, leptin, cholesterol and resistin levels: reduced glucose, insulin, leptin, cholesterol, and resistin levels
DIO mice; DIO mice, 10, 50 or 100 mg/kg PO 5 weeks
  prevention of weight gain, dose dependence: dose-dependent manner
DIO mice; DIO mice, HFD 14 weeks then 100 mg/kg PO 5 weeks
  weight gain: prevented weight gain
DIO mice; DIO mice
  glucose tolerance (glucose tolerance test): dose-dependent improvements
  insulin sensitivity (insulin tolerance test): dose-dependent improvements
DIO mice; DIO mice, listed as fexaramine
  glucose tolerance (glucose tolerance test): improved glucose clearance
  insulin sensitivity (insulin tolerance test): improved insulin sensitivity
DIO mice; DIO mice, highest dose
  weight gain at the highest dose: almost completely abrogated
[1]; 100 mg/kg PO 5 weeks
  FGF15 expression in intestine (RNA-Seq): dramatically up-regulated
  bile acid pool size (total serum BA levels): reducing the bile acid pool size
  ratio of unconjugated to conjugated cholic acid: remarkably increased
[1]; 100 mg/kg PO 5 weeks, serum
  circulating FGF15: increase in circulating FGF15
[1]; chronic Fex treatment
  expression of liver FXR target genes SHP and BSEP: not altered
  hepatic CYP7A1 expression (mRNA and protein): significantly repressed
  hepatic expression of CYP8B1 and CYP27A1: not affected
[1]; chronic Fex-treatment
  expression of mucosal defense genes Occludin and Muc2: increased expression
Human TGR5
  TGR5 activation (luciferase activity): does not activate
Human TGR5; listed as fexaramine
  TGR5 activation (luciferase activity): fails to activate TGR5
Normal chow-fed mice; chow-fed mice, 100 mg/kg PO 5 weeks
  weight gain, basal metabolic activity and glucose tolerance: indistinguishable from vehicle-treated mice
Normal chow-fed mice; normal chow-fed mice, range of doses
  glucose homeostasis: no effects observed
